US20110039904A1, “Alcohol alkoxylates, agents comprising the same and use of the alcohol alkoxylates as adjuvants in the agrochemical field” (BASF SE, priority 2008, published 2011)

Test system: leaf rust of wheat "Puccinia recondita"
Test: Biotest: curative control of leaf rust of wheat (fungicidal efficacy of epoxiconazole with adjuvant)
Type: in vivo, Puccinia recondita on wheat seedlings "Kanzler"
Conditions: 50 ppm epoxiconazole without adjuvant; sprayed 2 days after inoculation; rated after 10 days; wheat seedlings, greenhouse
Procedure: 125 g/l epoxiconazole were ground together with in each case 20 g/l dispersant (Atlas G 5000^1, Synperonic A^1) and 50 g/l propylene glycol in aqueous medium in a stirred-ball mill (dyno-mill) until a particle size of 80% <2 μm was reached. To the mixture were added 3 g/l per liter antifoam, for example Rhodorsil 426^2, 3 g/l thickener, for example Rhodopol 23^2, and a biocide, for example Acticide MBS^3. The respective adjuvant, in aqueous solution or in a solvent, for example Solvesso, was stirred into this mixture, so that the final concentration of the formulation is composed of 62.5 g/l epoxiconazole and 125 g/l adjuvant.
Biotest (curative control of leaf rust of wheat):
Leaves of wheat seedlings of the species “Kanzler” which had been grown in pots were dusted, in the two-leaf stage, with spores of leaf rust of wheat “Puccinia recondita” and incubated for 2 days in the greenhouse at high atmospheric humidity. In fully automated spray cabins, the plants were then sprayed with the formulations which comprised the active ingredients and adjuvants specified hereinbelow. The spray mixtures comprised 50 ppm epoxiconazole and 100 ppm adjuvant. The ratio active ingredient to adjuvant was, accordingly, 1:2. […] After 10 days, the extent of the leaf rust disease was determined visually as disease percent of the total leaf area. 3 pots were evaluated for each combination.

## Fc1ccc([C@]2(Cn3cncn3)O[C@H]2c2ccccc2Cl)cc1 (racemic) [Epoxiconazole, epoxiconazole]
  % infection (leaf rust disease percent of the total leaf area, determined visually): 23%
